From US12486269B2 (Aconcagua Bio, Inc., priority 2024, dated 2025) come the findings set out here.

One may read the EC50 as the concentration giving half of the maximal effect.

Assay [1] has as its target T1, human calcitonin receptor (CTR) (Homo sapiens, UniProt P30988).
T1 construct: expressed in transfected cells; host or cells: COS-7 (COS7-human CTR Clone #2)
T1 sequence (P30988 25-474): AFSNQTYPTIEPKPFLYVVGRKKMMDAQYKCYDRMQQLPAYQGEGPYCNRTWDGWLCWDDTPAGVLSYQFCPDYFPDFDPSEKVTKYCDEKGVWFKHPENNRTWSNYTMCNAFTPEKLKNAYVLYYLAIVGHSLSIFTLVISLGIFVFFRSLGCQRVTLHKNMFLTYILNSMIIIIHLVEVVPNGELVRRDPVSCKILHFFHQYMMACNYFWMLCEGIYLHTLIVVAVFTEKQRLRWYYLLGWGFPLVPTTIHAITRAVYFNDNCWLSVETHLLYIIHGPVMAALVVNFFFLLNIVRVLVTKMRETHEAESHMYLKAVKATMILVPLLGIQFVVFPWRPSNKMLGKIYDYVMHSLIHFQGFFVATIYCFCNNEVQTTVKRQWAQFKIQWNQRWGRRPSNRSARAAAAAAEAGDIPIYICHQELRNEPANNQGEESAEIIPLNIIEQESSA
Kind of assay: Calcitonin Receptor (CTR) cAMP Assay. The class given is cell-based. To be noted: COS7-human CTR Clone #2 stable cell line, cAMP dynamic 2 kit, 30 min; read-out: Calcitonin Receptor cAMP Stimulation Activity: EC50. The procedure: (§1) After incubation, the cAMP assay signal was generated using cAMP dynamic 2 kit (Revvity, Cat #62AM4PEC). 10 μL cAMP-d2 working solution was added to each well, followed by 10 μL Anti-cAMP antibody-cryptate working solution which was added to each well using CERTUS FLEX LIQUID […]. The samples were then incubated at room temperature for 1 hour protected from light. the fluorescence was read at 665 and 615 nm with Reader PerkinElmer EnVision 2105. % Activity=100−(mean RLU of test sample−mean RLU of positive control)/(mean RLU of vehicle control−mean RLU of positive control)×100 Calcitonin Receptor (CTR) cAMP Assay
The calcitonin receptor (CTR) belongs to the subfamily of GPCRs known as the secretin or ‘B’ family of GPCRs. Like other class B1 GPCRs, the CT receptor family is canonically coupled to Gs-mediated cAMP production, and measurement of cAMP accumulation has been the primary assay used to determine peptide selectivity and potency.
(§2) To optimize functional activity directed toward Gαs coupling, COS-7 cells were stably transfected with human calcitonin receptor (CTR) to create COS7-human CTR Clone #2 stable cell line. 100×concentration of compound working solutions were prepared with 4-fold serial dilution in 384-well Echo LDV plate (Labcyte, Cat #LP-0200-BC). 200 nL/well 100×concentration of compound working solutions were moved to 384-well white microplate (Perkin Elmer, Cat #6007680) using Labcyte ECHO550. 1×10^5 cells/mL COS7-human CTR Clone #2 cell suspensions prepared with assay buffer [HBSS containing 20 mM HEPES (Gibco, Cat #15630-080), 0.5 mM IBMX (Sigma, Cat #15879) and 0.1% Casein (Sigma, Cat #C4765)], 20 μL cell suspensions were added to each well of previous generated assay plate which already contains 200 nL compound at 100×concentration using ThermoFisher Multidrop Combi (2000 cells/well). Seal the plate and incubate at 37° C. with 5% CO2 for 30 min.
After incubation, the cAMP assay signal was generated using cAMP dynamic 2 kit (Revvity, Cat #62AM4PEC). 10 μL cAMP-d2 working solution was added to each well, followed by 10 μL Anti-cAMP antibody-cryptate working solution which was added to each well using CERTUS FLEX LIQUID […]. The samples were then incubated at room temperature for 1 hour protected from light. the fluorescence was read at 665 and 615 nm with Reader PerkinElmer EnVision 2105. % Activity=100−(mean RLU of test sample−mean RLU of positive control)/(mean RLU of vehicle control−mean RLU of positive control)×100

The target in assay [2] is T2, COS-7/AMY3 (human calcitonin receptor (CTR) and RAMP3) (Homo sapiens, UniProt O60896+P30988).
T2 construct: expressed in transfected cells; host or cells: COS-7
Put plainly: Amylin Receptor cAMP Assay II. It is filed as cell-based. Conditions: values marked **: Amylin Receptor cAMP Assay II; COS-7/AMY3 cells, cAMP dynamic 2 kit, 30 min; read-out: Amylin Receptor cAMP Stimulation Activity: EC50.
Description: AMYRs are heterodimers of the class B calcitonin (CT) G-protein-coupled receptor (CTR) and receptor activity-modifying proteins (RAMPs). All three RAMPs can interact with the CTR and form AMY1, AMY2, AMY3 with RAMP1, RAMP2 and RAMP3, respectively. Like other class B1 GPCRs, the CT receptor family is canonically coupled to Gs-mediated cAMP production, and measurement of cAMP accumulation has been the primary assay used to determine peptide selectivity and potency.
as §2, with “and RAMP3, simultaneously.” for “to create COS7-human CTR Clone #2 stable cell line.”, “COS-7/AMY3” for “COS7-human CTR Clone #2”
as §1

T2 sequence (O60896 24-148, one chain of several): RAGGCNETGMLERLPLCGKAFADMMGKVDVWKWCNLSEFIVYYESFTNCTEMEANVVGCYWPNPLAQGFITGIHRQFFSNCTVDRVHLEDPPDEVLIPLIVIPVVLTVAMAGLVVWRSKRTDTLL

With `O=C1c2c(nc(CCc3ccc(F)cc3)c(-c3n[nH]c(=O)o3)c2-c2cc3ccnc(N[C@@H]4CCc5cc(Cl)cnc54)c3s2)C23CC(CN12)C3` [Compound 266, (R)-5-(4-(7-((3-chloro-6,7-dihydro-5H-cyclopenta[b]pyridin-7-yl)amino)thieno[2,3-c]pyridin-2-yl)-2-(4-fluorophenethyl)-5-oxo-8,9-dihydro-5H,7H-8,9a-methanopyrido[2,3-a]pyrrolizin-3-yl)-1,3,4-oxadiazol-2(3H)-one], the EC50 was 2.75 nM in assay [1] and 182 nM in assay [2].
As for `Cc1cc2cc(-c3c4c(nc(CCc5ccc(F)cc5)c3-c3n[nH]c(=O)o3)C35CC(CN3C4=O)C5)sc2c(N[C@@H]2CCOc3c(F)cc(F)cc32)n1` [Compound 295, (R)-5-(4-(7-((6,8-difluorochroman-4-yl)amino)-5-methylthieno[2,3-c]pyridin-2-yl)-2-(4-fluorophenethyl)-5-oxo-8,9-dihydro-5H,7H-8,9a-methanopyrido[2,3-a]pyrrolizin-3-yl)-1,3,4-oxadiazol-2(3H)-one], the EC50 was 0.0289 nM in assay [1] and 1.21 nM in assay [2].
`COc1nccc2c1CC[C@H]2Nc1nccc2cc(-c3c4c(nc(CCc5ccc(F)cc5)c3-c3n[nH]c(=O)o3)C35CC(CN3C4=O)C5)sc12` [Compound 264, (R)-5-(2-(4-fluorophenethyl)-4-(7-((1-methoxy-6,7-dihydro-5H-cyclopenta[c]pyridin-5-yl)amino)thieno[2,3-c]pyridin-2-yl)-5-oxo-8,9-dihydro-5H,7H-8,9a-methanopyrido[2,3-a]pyrrolizin-3-yl)-1,3,4-oxadiazol-2(3H)-one]: the values for the EC50 in assay [1] and in assay [2] were 0.247 nM and 7.4 nM, respectively.
With `O=C1c2c(nc(CCc3ccc(F)cc3)c(-c3noc(=O)[nH]3)c2-c2cc3ccnc(NCc4ccc5c(c4)CCC5)c3s2)[C@@H]2CCCN12` [Compound 148], the EC50 in assay [1] turned out to be 18.7 nM; in assay [2], 288 nM.
`COc1cccc2c1CC[C@H]2Nc1nccc2cc(-c3c4c(nc(CCc5ccc(F)cc5)c3-c3n[nH]c(=O)o3)[C@]3(C)COCCN3C4=O)sc12` [Compound 179, (R)-2-(4-fluorophenethyl)-4-(7-(((R)-4-methoxy-2,3-dihydro-1H-inden-1-yl)amino)thieno[2,3-c]pyridin-2-yl)-10a-methyl-3-(5-oxo-4,5-dihydro-1,3,4-oxadiazol-2-yl)-7,8,10,10a-tetrahydro-5H-pyrido[2′,3′:3,4]pyrrolo[2,1-c][1,4]oxazin-5-one]: the figures for the EC50 in assay [1] and in assay [2] were 1.25 nM and 34.2 nM, respectively.
Regarding `O=C1c2c(nc(CCc3ccc(F)cc3)c(-c3n[nH]c(=O)o3)c2-c2cc3ccnc(N[C@@H]4CCc5cc(F)c(F)cc54)c3s2)[C@@H]2CCCN12` [Compound 166, 5-((S)-4-(7-(((R)-5,6-difluoro-2,3-dihydro-1H-inden-1-yl)amino)thieno[2,3-c]pyridin-2-yl)-2-(4-fluorophenethyl)-5-oxo-7,8,9,9a-tetrahydro-5H-pyrido[2,3-a]pyrrolizin-3-yl)-1,3,4-oxadiazol-2(3H)-one], the EC50 in assay [1] worked out at 0.0875 nM; in assay [2], 1.38 nM.
As to `Cc1cc2cc(-c3c4c(nc(CCc5ccc(F)cc5)c3-c3n[nH]c(=O)o3)[C@@H]3CCCN3C4=O)sc2c(N[C@@H]2CCc3cc(F)c(F)cc32)n1` [Compound 253, 5-((S)-4-(7-(((R)-5,6-difluoro-2,3-dihydro-1H-inden-1-yl)amino)-5-methylthieno[2,3-c]pyridin-2-yl)-2-(4-fluorophenethyl)-5-oxo-7,8,9,9a-tetrahydro-5H-pyrido[2,3-a]pyrrolizin-3-yl)-1,3,4-oxadiazol-2(3H)-one], the half-maximal effective concentration (EC50) in assay [1] came out at 0.0708 nM; in assay [2] it was 1.88 nM.
`O=C1c2c(nc(CCc3ccc(F)cc3)c(-c3noc(=O)[nH]3)c2-c2ccc3c(c2)CCCN3CCc2ccc(F)c(F)c2)[C@@H]2CCCN12` [Compound 114]: the EC50 in assay [1] turned out to be 396 nM; in assay [2], 425 nM.
For `COc1cccc2c1CC[C@H]2Nc1nc(C(F)(F)F)cc2cc(-c3c4c(nc(CCc5ccc(F)cc5)c3-c3n[nH]c(=O)o3)[C@@H]3CCCN3C4=O)sc12` [Compound 215, 5-((S)-2-(4-fluorophenethyl)-4-(7-(((R)-4-methoxy-2,3-dihydro-1H-inden-1-yl)amino)-5-(trifluoromethyl)thieno[2,3-c]pyridin-2-yl)-5-oxo-7,8,9,9a-tetrahydro-5H-pyrido[2,3-a]pyrrolizin-3-yl)-1,3,4-oxadiazol-2(3H)-one], the values for the EC50 in assay [1] and in assay [2] were 0.406 nM and 7.23 nM, respectively.
As for `C[C@@H](Nc1nccc2cc(-c3c4c(nc(CCc5ccc(F)cc5)c3-c3noc(=O)[nH]3)[C@@H]3CCCN3C4=O)sc12)c1ccc(F)c(F)c1` [Compound 140], the EC50 in assay [1] turned out to be 2.13 nM; in assay [2], 19.1 nM.
With `N#Cc1cc2c(cc1F)[C@H](Nc1nccc3cc(-c4c5c(nc(CCc6ccc(F)cc6)c4-c4n[nH]c(=O)o4)[C@@H]4CCCN4C5=O)sc13)CC2` [Compound 165, (R)-6-fluoro-1-((2-((S)-2-(4-fluorophenethyl)-5-oxo-3-(5-oxo-4,5-dihydro-1,3,4-oxadiazol-2-yl)-7,8,9,9a-tetrahydro-5H-pyrido[2,3-a]pyrrolizin-4-yl)thieno[2,3-c]pyridin-7-yl)amino)-2,3-dihydro-1H-indene-5-carbonitrile], the figures for the 50% effective concentration (EC50) in assay [1] and in assay [2] were 0.539 nM and 6.73 nM, respectively.
Turning to `N#Cc1ccc(Cn2c(=O)oc3cc(-c4c5c(nc(CCC6CCOCC6)c4-c4cc(=O)[nH]o4)[C@@H]4CCCN4C5=O)ccc32)cc1F` [Compound 203, 4-[[6-[(9aS)-5-oxo-3-(3-oxoisoxazol-5-yl)-2-(2-tetrahydropyran-4-ylethyl)-1,4,7,8,9,9a-hexahydropyrido[2,3-a]pyrrolizin-4-yl]-2-oxo-1,3-benzoxazol-3-yl]methyl]-2-fluoro-benzonitrile], the concentration giving a half-maximal response (EC50) in assay [1] was determined as 4.69 nM; in assay [2] it was 529 nM.
On to `COc1c(F)c(F)cc2c1CC[C@H]2Nc1nccc2cc(-c3c4c(nc(CCc5ccc(F)cc5)c3-c3n[nH]c(=O)o3)[C@@H]3CCCN3C4=O)sc12` [Compound 192, 5-((S)-4-(7-(((R)-5,6-difluoro-4-methoxy-2,3-dihydro-1H-inden-1-yl)amino)thieno[2,3-c]pyridin-2-yl)-2-(4-fluorophenethyl)-5-oxo-7,8,9,9a-tetrahydro-5H-pyrido[2,3-a]pyrrolizin-3-yl)-1,3,4-oxadiazol-2(3H)-one], for which the concentration giving a half-maximal response (EC50) was 0.00532 nM in assay [1] and 0.8 nM in assay [2].
